Test results as given in ChEMBL document CHEMBL5724914, “Linking interpersonal differences in gut microbiota composition and drug biotransformation activity” (2024).

How the values were obtained:
[1] = (§1) The drug is tested on Z-019 corresponding to rat gut metagenome with ENA study accession number: PRJEB37062 and ENA sample accession number: ERS12561818 for biotransformation under anaerobic condition. The drug concentrations were measured over 9 timepoints collected between 0 and 24 hours of incubation by liquid-chromatography-coupled mass spectrometry (LC–MS); details: 2 µM
[2] = as §1, with “Z-014” for “Z-019”, “ERS12561814” for “ERS12561818”; details: 2 µM
[3] = as §1, with “on Z-009” for “on Z-019”, “to pig” for “to rat”, “number: ERS12561809” for “number: ERS12561818”; details: 2 µM
[4] = as §1, with “on Z-003” for “on Z-019”, “to pig” for “to rat”, “number: ERS12561803” for “number: ERS12561818”; details: 2 µM
[5] = as §1, with “on Z-002” for “on Z-019”, “to rabbit” for “to rat”, “number: ERS12561802” for “number: ERS12561818”; details: 2 µM
[6] = as §1, with “on WLS-098” for “on Z-019”, “to human” for “to rat”, “number: ERS12561754” for “number: ERS12561818”; details: 2 µM
[7] = as §1, with “on WLS-006” for “on Z-019”, “to human” for “to rat”, “number: ERS12561741” for “number: ERS12561818”; details: 2 µM
[8] = human gut metagenome, 24 h, 2 µM
[9] = human gut metagenome, 24 h, 2 µM; remark: listed apart in the source
[10] = human gut metagenome, 24 h, 2 µM; remark: listed apart in the source
[11] = human gut metagenome, 24 h, 2 µM; remark: listed apart in the source
[12] = human gut metagenome, 24 h, 2 µM; remark: listed apart in the source
[13] = human gut metagenome, 24 h, 2 µM; remark: listed apart in the source
[14] = human gut metagenome, 24 h, 2 µM; remark: listed apart in the source
[15] = human gut metagenome, 24 h, 2 µM; remark: listed apart in the source
[16] = human gut metagenome, 24 h, 2 µM; remark: listed apart in the source
[17] = human gut metagenome, 24 h, 2 µM; remark: listed apart in the source
[18] = human gut metagenome, 24 h, 2 µM; remark: listed apart in the source
[19] = human gut metagenome, 24 h, 2 µM; remark: listed apart in the source
[20] = human gut metagenome, 24 h, 2 µM; remark: listed apart in the source
Further: call rule not given here.

| SMILES | Bacterial Biotransformation [1] | Bacterial Biotransformation [2] | Bacterial Biotransformation [3] | Bacterial Biotransformation [4] | Bacterial Biotransformation [5] | Bacterial Biotransformation [6] | Bacterial Biotransformation [7] | Bacterial Biotransformation [8] | Bacterial Biotransformation [9] | Bacterial Biotransformation [10] | Bacterial Biotransformation [11] | Bacterial Biotransformation [12] | Bacterial Biotransformation [13] | Bacterial Biotransformation [14] | Bacterial Biotransformation [15] | Bacterial Biotransformation [16] | Bacterial Biotransformation [17] | Bacterial Biotransformation [18] | Bacterial Biotransformation [19] | Bacterial Biotransformation [20] |
| --- | --- | --- | --- | --- | --- | --- | --- | --- | --- | --- | --- | --- | --- | --- | --- | --- | --- | --- | --- | --- |
| CN1CCOC(c2ccccc2)c2ccccc2C1 (stereo not given) [NEFOPAM] | Compound NOT metabolized | Compound NOT metabolized | Compound NOT metabolized | Compound NOT metabolized | Compound NOT metabolized | Compound metabolized | Compound metabolized | Compound metabolized | Compound metabolized | Compound NOT metabolized | Compound metabolized | Compound metabolized | Compound metabolized | Compound NOT metabolized | Compound metabolized | Compound metabolized | Compound NOT metabolized | Compound metabolized | Compound metabolized | Compound metabolized |
| CCN1CCCC1CNC(=O)c1cc(S(N)(=O)=O)ccc1OC (stereo not given) [SULPIRIDE] | Compound NOT metabolized | Compound NOT metabolized | Compound metabolized | Compound metabolized | Compound metabolized | Compound metabolized | Compound metabolized | Compound NOT metabolized | Compound NOT metabolized | Compound NOT metabolized | Compound NOT metabolized | Compound metabolized | Compound NOT metabolized | Compound NOT metabolized | Compound metabolized | Compound metabolized | Compound NOT metabolized | Compound metabolized | Compound metabolized | Compound metabolized |
| Cc1nc(-c2ccc(OCC(C)C)c(C#N)c2)sc1C(=O)O [FEBUXOSTAT] | Compound NOT metabolized | Compound NOT metabolized | Compound NOT metabolized | Compound metabolized | Compound metabolized | Compound metabolized | Compound metabolized | Compound metabolized | Compound metabolized | Compound metabolized | Compound metabolized | Compound metabolized | Compound metabolized | Compound metabolized | Compound metabolized | Compound metabolized | Compound metabolized | Compound metabolized | Compound metabolized | Compound metabolized |
| COC(=O)Nc1nc2ccc(C(=O)c3ccccc3)cc2[nH]1 [MEBENDAZOLE] | Compound NOT metabolized | Compound NOT metabolized | Compound metabolized | Compound metabolized | Compound metabolized | Compound metabolized | Compound metabolized | Compound metabolized | Compound metabolized | Compound metabolized | Compound metabolized | Compound NOT metabolized | Compound metabolized | Compound metabolized | Compound metabolized | Compound metabolized | Compound metabolized | Compound metabolized | Compound metabolized | Compound metabolized |
